Measurements: patent US11053204B2, “Pyrimidinyloxy benzene derivatives as herbicides” (FMC Corporation, priority 2015, dated 2021)

Experiments:
Assay type in all cases: in vivo
[1] = tested on: blackgrass (Alopecurus myosuroides); test: Test C postemergence, plant response rating; conditions: for Plant response rating, Blackgrass: scale 0 to 100; for Blackgrass plant response rating: scale 0 to 100 (0 no effect, 100 complete control)
Outline: (§1)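 Pre-emergence: seeds sown in loam soil–sand blend or silt loam and sprayed with test chemicals in a non-phytotoxic solvent mixture with surfactant. Post-emergence: plants 2 to 18 cm (1- to 4-leaf stage) in peat-based potting medium, same formulation. Greenhouse 13 to 15 d; visual rating 0 (no effect) to 100 (complete control) versus controls.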

[2] = tested on: galium (catchweed bedstraw, Galium aparine); test: Test C postemergence, plant response rating; conditions: for Galium plant response rating: scale 0 to 100 (0 no effect, 100 complete control)
Outline: as §1

[3] = tested on: wheat (winter wheat, Triticum aestivum); test: Test C postemergence, plant response rating; conditions: for Wheat plant response rating: scale 0 to 100 (0 no effect, 100 complete control)
Outline: as §1

[4] = tested on: corn (Zea mays); test: Test C postemergence, plant response rating; conditions: for Corn plant response rating: scale 0 to 100 (0 no effect, 100 complete control)
Outline: as §1

[5] = tested on: morningglory (Ipomoea coccinea); test: Test C postemergence, plant response rating; conditions: for Morningglory plant response rating: scale 0 to 100 (0 no effect, 100 complete control)
Outline: as §1

[6] = tested on: crabgrass, large (large crabgrass, Digitaria sanguinalis); test: Test C postemergence, plant response rating; conditions: for Crabgrass, Large plant response rating: scale 0 to 100 (0 no effect, 100 complete control)
Outline: as §1

[7] = tested on: oilseed rape (Brassica napus); test: Test C postemergence, plant response rating; conditions: for Oilseed Rape plant response rating: scale 0 to 100 (0 no effect, 100 complete control)
Outline: as §1

[8] = tested on: nutsedge, yellow (yellow nutsedge, Cyperus esculentus); test: Test C postemergence, plant response rating; conditions: for Nutsedge, Yellow plant response rating: scale 0 to 100 (0 no effect, 100 complete control)
Outline: as §1

[9] = tested on: kochia (Kochia scoparia); test: Test C postemergence, plant response rating; conditions: for Kochia plant response rating: scale 0 to 100 (0 no effect, 100 complete control)
Outline: as §1

[10] = tested on: barnyardgrass (Echinochloa crus-galli); test: Test C postemergence, plant response rating; conditions: for Plant response rating, Barnyardgrass: scale 0 to 100; for Barnyardgrass plant response rating: scale 0 to 100 (0 no effect, 100 complete control)
Outline: as §1

[11] = tested on: ragweed (common ragweed, Ambrosia elatior); test: Test A preemergence, visual injury rating; conditions: 0 to 100 scale (0 no effect, 100 complete control); for Ragweed plant response rating: 500 g ai/ha
Outline: (§2)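 Visual injury scored 0–100 (100 = complete control) against untreated controls about 10 days after treatment in a greenhouse. Test chemicals, formulated with surfactant in non-phytotoxic solvent, were sprayed on soil preemergence or on 2-10 cm, one- to two-leaf plants postemergence.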

[12] = tested on: pigweed (Amaranthus retroflexus); test: Test A preemergence, visual injury rating; conditions: 0 to 100 scale (0 no effect, 100 complete control)
Outline: as §2

[13] = tested on: giant foxtail (Setaria faberii); test: Test A preemergence, visual injury rating; conditions: 0 to 100 scale (0 no effect, 100 complete control)
Outline: as §2

[14] = tested on: Italian ryegrass (Lolium multiflorum); test: Test A preemergence, visual injury rating; conditions: 0 to 100 scale (0 no effect, 100 complete control)
Outline: as §2

[15] = tested on: kochia (Kochia scoparia); test: Test A preemergence, visual injury rating; conditions: 0 to 100 scale (0 no effect, 100 complete control)
Outline: as §2

[16] = tested on: barnyardgrass (Echinochloa crus-galli); test: Test A preemergence, visual injury rating; conditions: 0 to 100 scale (0 no effect, 100 complete control)
Outline: as §2

[17] = tested on: barnyardgrass (Echinochloa crus-galli); test: Test B flooded paddy test, plant response rating; conditions: 250 g ai/ha; Flood; scale of 0 to 100 where 0 is no effect and 100 is complete control; 13 to 15 days
Outline: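 Under a constant 3 cm flood, test compounds went directly into the paddy water. Following 13 to 15 days of greenhouse growth, treated species and controls were compared by eye.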

In the case of `N#CCCOC(=O)c1c(Br)cccc1Oc1ncc(Cl)cn1` [Compound 7], the “Plant response rating, Blackgrass” value ([1]; 16 g ai/ha) is reported as 0, the “Plant response rating, Blackgrass” value ([1]; 31 g ai/ha) is reported as 0 and the “Blackgrass plant response rating” value ([1]; 62 g ai/ha) is reported as 0. The “Blackgrass plant response rating” value ([1]; 125 g ai/ha) was 5, the “Plant response rating, Galium” value ([2]; 16 g ai/ha, scale 0 to 100) was 0 and the “Plant response rating, Galium” value ([2]; 31 g ai/ha, scale 0 to 100) was 0. For the same molecule, the “Galium plant response rating” value ([2]; 62 g ai/ha) was 10, the “Galium plant response rating” value ([2]; 125 g ai/ha) was 40 and the “Plant response rating, Wheat” value ([3]; 16 g ai/ha, scale 0 to 100) was 0. For the same molecule, the “Plant response rating, Wheat” value ([3]; 31 g ai/ha, scale 0 to 100) was 0, the “Wheat plant response rating” value ([3]; 62 g ai/ha) was 5 and the “Wheat plant response rating” value ([3]; 125 g ai/ha) was 5. The “Plant response rating, Corn” value ([4]; 16 g ai/ha, scale 0 to 100) was 5, the “Plant response rating, Corn” value ([4]; 31 g ai/ha, scale 0 to 100) was 10 and the “Corn plant response rating” value ([4]; 62 g ai/ha) was 10. The “Corn plant response rating” value ([4]; 125 g ai/ha) was 15, the “Plant response rating, Morningglory” value ([5]; 16 g ai/ha, scale 0 to 100) was 5 and the “Plant response rating, Morningglory” value ([5]; 31 g ai/ha, scale 0 to 100) was 25. The “Morningglory plant response rating” value ([5]; 62 g ai/ha) was 40, the “Morningglory plant response rating” value ([5]; 125 g ai/ha) was 55 and the “Plant response rating, Crabgrass, Large” value ([6]; 16 g ai/ha, scale 0 to 100) was 5. For the same molecule, the “Plant response rating, Crabgrass, Large” value ([6]; 31 g ai/ha, scale 0 to 100) was 5, the “Crabgrass, Large plant response rating” value ([6]; 62 g ai/ha) was 20 and the “Crabgrass, Large plant response rating” value ([6]; 125 g ai/ha) was 15. The “Plant response rating, Oilseed Rape” value ([7]; 16 g ai/ha, scale 0 to 100) was 0, the “Plant response rating, Oilseed Rape” value ([7]; 31 g ai/ha, scale 0 to 100) was 0 and the “Oilseed Rape plant response rating” value ([7]; 62 g ai/ha) was 0. For the same molecule, the “Oilseed Rape plant response rating” value ([7]; 125 g ai/ha) was 5, the “Plant response rating, Nutsedge, Yellow” value ([8]; 16 g ai/ha, scale 0 to 100) was 0 and the “Plant response rating, Nutsedge, Yellow” value ([8]; 31 g ai/ha, scale 0 to 100) was 0. The “Nutsedge, Yellow plant response rating” value ([8]; 62 g ai/ha) was 5, the “Nutsedge, Yellow plant response rating” value ([8]; 125 g ai/ha) was 5 and the “Plant response rating, Kochia” value ([9]; 16 g ai/ha, scale 0 to 100) was 0. The “Plant response rating, Kochia” value ([9]; 31 g ai/ha, scale 0 to 100) was 30, the “Kochia plant response rating” value ([9]; 62 g ai/ha) was 25 and the “Kochia plant response rating” value ([9]; 125 g ai/ha) was 20. For the same molecule, the “Plant response rating, Barnyardgrass” value ([10]; 16 g ai/ha) was 5, the “Plant response rating, Barnyardgrass” value ([10]; 31 g ai/ha) was 5 and the “Barnyardgrass plant response rating” value ([10]; 62 g ai/ha) was 15. The “Barnyardgrass plant response rating” value ([10]; 125 g ai/ha) was 10, the “Ragweed plant response rating” value [11] was 50 and the “Pigweed plant response rating” value ([12]; 125 g ai/ha) was 100. The “Pigweed plant response rating” value ([12]; 500 g ai/ha) was 100, the “Foxtail, Giant plant response rating” value ([13]; 125 g ai/ha) was 90 and the “Foxtail, Giant plant response rating” value ([13]; 500 g ai/ha) was 100. For the same molecule, the “Ryegrass, Italian plant response rating” value ([14]; 125 g ai/ha) was 0, the “Ryegrass, Italian plant response rating” value ([14]; 500 g ai/ha) was 30 and the “Kochia plant response rating” value ([15]; 125 g ai/ha) was 50. The “Kochia plant response rating” value ([15]; 500 g ai/ha) was 100, the “Barnyardgrass plant response rating” value ([16]; 125 g ai/ha) was 50 and the “Barnyardgrass plant response rating” value ([16]; 500 g ai/ha) was 100. The “Plant response rating, Barnyardgrass” value [17] was 0.
`CCCC(=O)c1c(Oc2ncc(Cl)cn2)cccc1C(F)(F)F` [Compound 136] was tested, and the “Plant response rating, Blackgrass” value ([1]; 16 g ai/ha) was 5, the “Plant response rating, Blackgrass” value ([1]; 31 g ai/ha) was 10 and the “Blackgrass plant response rating” value ([1]; 62 g ai/ha) was 10. The “Blackgrass plant response rating” value ([1]; 125 g ai/ha) was 15, the “Plant response rating, Galium” value ([2]; 16 g ai/ha, scale of 0 to 100) was 50 and the “Plant response rating, Galium” value ([2]; 31 g ai/ha, scale 0 to 100) was 65. The “Galium plant response rating” value ([2]; 62 g ai/ha) was 60, the “Galium plant response rating” value ([2]; 125 g ai/ha) was 75 and the “Plant response rating, Wheat” value ([3]; 16 g ai/ha, scale of 0 to 100) was 0. For the same molecule, the “Plant response rating, Wheat” value ([3]; 31 g ai/ha, scale 0 to 100) was 5, the “Wheat plant response rating” value ([3]; 125 g ai/ha) was 5 and the “Plant response rating, Corn” value ([4]; 16 g ai/ha, scale of 0 to 100) was 5. For the same molecule, the “Plant response rating, Corn” value ([4]; 31 g ai/ha, scale 0 to 100) was 10, the “Corn plant response rating” value ([4]; 62 g ai/ha) was 20 and the “Corn plant response rating” value ([4]; 125 g ai/ha) was 20. For the same molecule, the “Plant response rating, Morningglory” value ([5]; 16 g ai/ha, scale of 0 to 100) was 10, the “Plant response rating, Morningglory” value ([5]; 31 g ai/ha, scale 0 to 100) was 15 and the “Morningglory plant response rating” value ([5]; 62 g ai/ha) was 20. For the same molecule, the “Morningglory plant response rating” value ([5]; 125 g ai/ha) was 35, the “Plant response rating, Crabgrass, Large” value ([6]; 16 g ai/ha, scale of 0 to 100) was 5 and the “Plant response rating, Crabgrass, Large” value ([6]; 31 g ai/ha, scale 0 to 100) was 5. The “Crabgrass, Large plant response rating” value ([6]; 62 g ai/ha) was 10, the “Crabgrass, Large plant response rating” value ([6]; 125 g ai/ha) was 30 and the “Plant response rating, Oilseed Rape” value ([7]; 16 g ai/ha, scale of 0 to 100) was 65. For the same molecule, the “Plant response rating, Oilseed Rape” value ([7]; 31 g ai/ha, scale 0 to 100) was 80, the “Oilseed Rape plant response rating” value ([7]; 62 g ai/ha) was 80 and the “Oilseed Rape plant response rating” value ([7]; 125 g ai/ha) was 80. For the same molecule, the “Plant response rating, Nutsedge, Yellow” value ([8]; 16 g ai/ha, scale of 0 to 100) was 0, the “Plant response rating, Nutsedge, Yellow” value ([8]; 31 g ai/ha, scale 0 to 100) was 0 and the “Nutsedge, Yellow plant response rating” value ([8]; 62 g ai/ha) was 0. For the same molecule, the “Nutsedge, Yellow plant response rating” value ([8]; 125 g ai/ha) was 5, the “Plant response rating, Kochia” value ([9]; 16 g ai/ha, scale of 0 to 100) was 80 and the “Plant response rating, Kochia” value ([9]; 31 g ai/ha, scale 0 to 100) was 80. The “Kochia plant response rating” value ([9]; 62 g ai/ha) was 85, the “Kochia plant response rating” value ([9]; 125 g ai/ha) was 90 and the “Plant response rating, Barnyardgrass” value ([10]; 16 g ai/ha) was 5. For the same molecule, the “Plant response rating, Barnyardgrass” value ([10]; 31 g ai/ha) was 5, the “Barnyardgrass plant response rating” value ([10]; 62 g ai/ha) was 10 and the “Barnyardgrass plant response rating” value ([10]; 125 g ai/ha) was 10. The “Plant response rating, Ragweed” value ([11]; 125 g ai/ha) was 80, the “Ragweed plant response rating” value [11] was 80 and the “Plant response rating, Pigweed” value ([12]; 125 g ai/ha) was 100. For the same molecule, the “Pigweed plant response rating” value ([12]; 500 g ai/ha) was 100, the “Plant response rating, Foxtail, Giant” value ([13]; 125 g ai/ha) was 100 and the “Foxtail, Giant plant response rating” value ([13]; 500 g ai/ha) was 100. The “Plant response rating, Ryegrass, Italian” value ([14]; 125 g ai/ha) was 20, the “Ryegrass, Italian plant response rating” value ([14]; 500 g ai/ha) was 100 and the “Plant response rating, Kochia” value ([15]; 125 g ai/ha) was 100. For the same molecule, the “Kochia plant response rating” value ([15]; 500 g ai/ha) was 100, the “Plant response rating, Barnyardgrass” value ([16]; 125 g ai/ha) was 100 and the “Barnyardgrass plant response rating” value ([16]; 500 g ai/ha) was 100. For the same molecule, the “Plant response rating, Barnyardgrass” value [17] was 45.
